The target in experiment [1] is HDAC 1 (Homo sapiens, UniProt Q13547). Kind of experiment: HDAC 1 inhibition assay with about 3 hours enzyme/compound preincubation (fluorophore/quencher peptide substrate). Type of experiment: biochemical. The following applies: 3-hour preincubation of enzyme with compound; read-out: HDAC 1 inhibitory activity (IC50 [μM]) (3-hour preincubation). As to the method: HDAC inhibitory activity of the compound of Example 1 was measured by two types of assays in which HDAC 1 was used as a target molecule. The first assay was carried out without preincubation after addition of the enzyme. The test compound was suspended in and titrated in dmso. It was then spotted into a 384-well test plate. The enzyme, HDAC 1, was diluted in assay buffer containing 25 mM Tris-HCl (pH 8.0), 137 mM NaCl, 2.7 mM KCl, and 0.01% Tween-20 and added to the pre-spotted compound. The peptide substrate containing a fluorophore/quencher pair was diluted in the same assay buffer and added to the compound/enzyme mix initiating the reaction. The reaction incubated at room temperature for about 45 minutes. A concentrated developer solution was diluted in the assay buffer, and added to the reaction. The reaction was incubated at room temperature for about 15 minutes and relative fluorescence was read on an instrument reader.
The second assay is similar to the first assay described above, except that preincubation is carried out for about 3 hours after the enzyme is introduced. The test compound was suspended in, and titrated in DMSO. It was then spotted into a 384-well test plate. The enzyme, HDAC 1, was diluted in the same assay buffer as used in the previous assay and added to the pre-spotted compound. The enzyme/compound mix was incubated at room temperature for about 3 hours. The peptide substrate containing a fluorophore/quencher pair was diluted in the assay buffer and added to the compound/enzyme mix initiating the reaction. The reaction incubated at room temperature for 45 minutes. A concentrated developer solution was diluted in the assay buffer, and added to the reaction. The reaction was incubated at room temperature for about 15 minutes and relative fluorescence was read on an instrument reader.

The target of experiment [2] is CDK2 (Homo sapiens, UniProt P24941). Kind of experiment: CDK2 inhibition. Type of experiment: biochemical.

HDAC 1, sequence (Q13547 whole entry, species assumed): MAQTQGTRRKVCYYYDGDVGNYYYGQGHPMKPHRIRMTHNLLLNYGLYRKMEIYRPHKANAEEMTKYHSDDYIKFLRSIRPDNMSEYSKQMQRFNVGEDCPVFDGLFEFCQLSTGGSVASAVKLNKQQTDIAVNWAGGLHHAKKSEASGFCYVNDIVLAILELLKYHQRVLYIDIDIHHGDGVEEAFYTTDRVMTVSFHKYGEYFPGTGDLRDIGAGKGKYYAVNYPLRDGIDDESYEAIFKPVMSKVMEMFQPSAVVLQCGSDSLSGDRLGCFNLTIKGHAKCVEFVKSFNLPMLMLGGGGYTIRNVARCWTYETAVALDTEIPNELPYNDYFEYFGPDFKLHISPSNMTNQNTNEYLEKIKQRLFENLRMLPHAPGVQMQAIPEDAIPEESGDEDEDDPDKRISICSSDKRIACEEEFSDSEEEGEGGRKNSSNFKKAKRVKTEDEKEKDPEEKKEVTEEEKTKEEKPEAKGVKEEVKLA

In general, IC50 refers to the concentration needed to halve the response being measured. With `Cc1nc2ncccn2c1-c1ccnc(Nc2ccc(C(=O)Nc3ccccc3N)cc2)n1` [Example 22, N-(2-Amino-phenyl)-4-[4-(2-methyl-imidazo[1,2-a]pyrimidin-3-yl)-pyrimidin-2-ylamino]-benzamide], the IC50 in experiment [1] was 0.071 µM; in experiment [2], 2.87 µM.
The matching figures for “N-hydroxy-2-(4-(2-methylimidazo[1,2-a]pyridin-3-yl)pyrimidin-2-ylamino)oxazole-5-carboxamide [Example 72]”: 0.4 µM and > 40 µM.
The like results for `Cc1nc2ccccn2c1-c1ccnc(Nc2ccc(C(=O)Nc3ccccc3N)c(F)c2)n1` [Example 36, N-(2-Amino-phenyl)-2-fluoro-4-[4-(2-methyl-imidazo[1,2-a]pyridin-3-yl)-pyrimidin-2-ylamino]-benzamide] were, in that order, > 10 µM and 0.11 µM.
The matching figures for `Cc1nc2cc(NCCN(C)C)ccn2c1-c1ccnc(Nc2ccc(C(=O)Nc3ccccc3N)cc2)n1` [Example 32, N-(2-Amino-phenyl)-4-{4-[7-(2-dimethylamino-ethylamino)-2-methyl-imidazo[1,2-a]pyridin-3-yl]-pyrimidin-2-ylamino}-benzamide]: 0.141 µM and 2.58 µM.
Regarding `Cc1nc2ccccn2c1-c1ccnc(Nc2cccc(C(=O)NO)c2)n1` [Example 3, N-Hydroxy-3-[4-(2-methyl-imidazo[1,2-a]pyridin-3-yl)-pyrimidin-2-ylamino]-benzamide], the IC50 in experiment [1] worked out at 0.011 µM; in experiment [2] it was 0.18 µM.
The matching figures for `Cc1nc2c(F)cccn2c1-c1ccnc(Nc2ccc(C(=O)Nc3ccccc3N)cc2)n1` [Example 45, N-(2-Amino-phenyl)-4-[4-(8-fluoro-2-methyl-imidazo[1,2-a]pyridin-3-yl)-pyrimidin-2-ylamino]-benzamide]: 0.178 µM and 0.35 µM.
`Cc1nc2cc(C(F)(F)F)ccn2c1-c1ccnc(Nc2ccc(C(=O)NO)cc2)n1` [Example 9, N-Hydroxy-4-[4-(2-methyl-7-trifluoromethyl-imidazo[1,2-a]pyridin-3-yl)-pyrimidin-2-ylamino]-benzamide]: the results for the concentration for half-maximal inhibition (IC50) in experiment [1] and in experiment [2] were 0.0392 µM and 0.037 µM, respectively.
With `Cc1nc2ccccn2c1-c1ccnc(Nc2nc(C(=O)NO)cs2)n1` [Example 61, N-hydroxy-2-(4-(2-methylimidazo[1,2-a]pyridin-3-yl)pyrimidin-2-ylamino)thiazole-4-carboxamide], the IC50 in experiment [1] was 1.8 µM; in experiment [2], 0.56 µM.
On to `COCCOc1ccn2c(-c3ccnc(Nc4ccc(C(=O)Nc5ccccc5N)cc4)n3)c(C)nc2c1` [Example 31, N-(2-Amino-phenyl)-4-{4-[7-(2-methoxy-ethoxy)-2-methyl-imidazo[1,2-a]pyridin-3-yl]-pyrimidin-2-ylamino}-benzamide], for which the IC50 is 0.243 µM in experiment [1] and 0.4 µM in experiment [2].
The like results for `Cc1nc2ccccn2c1-c1ccnc(Nc2ccc(C(=O)NO)cn2)c1` [Example 69, N-hydroxy-6-(4-(2-methylimidazo[1,2-a]pyridin-3-yl)pyridin-2-ylamino)nicotinamide] were, in that order, 0.141 µM and 0.15 µM.
The like results for `Cc1nc2ccccn2c1-c1ccnc(Nc2nc(C(=O)Nc3ccccc3N)cs2)n1` [Example 62, N-(2-aminophenyl)-2-(4-(2-methylimidazo[1,2-a]pyridin-3-yl)pyrimidin-2-ylamino)thiazole-4-carboxamide] were, in that order, > 10 µM and 1.36 µM.
In the case of `Cc1nc2ccccn2c1-c1ccnc(Nc2ccc(C(=O)NO)cc2F)n1` [Example 33, 3-Fluoro-N-hydroxy-4-[4-(2-methyl-imidazo[1,2-a]pyridin-3-yl)-pyrimidin-2-ylamino]-benzamide], the IC50 in experiment [1] stood at 0.126 µM; in experiment [2] it was 0.22 µM.
The matching figures for `Cc1nc2cc(CN(C)C)ccn2c1-c1ccnc(Nc2ccc(C(=O)Nc3ccccc3N)cc2)n1` [Example 46, N-(2-Amino-phenyl)-4-[4-(7-dimethylaminomethyl-2-methyl-imidazo[1,2-a]pyridin-3-yl)-pyrimidin-2-ylamino]-benzamide]: 0.13 µM and 1.61 µM.
For the compound `Cc1nc2ncccn2c1-c1ccnc(Nc2ccc(C(=O)NO)cc2)n1` [Example 21, N-Hydroxy-4-[4-(2-methyl-imidazo[1,2-a]pyrimidin-3-yl)-pyrimidin-2-ylamino]-benzamide], the half-maximal inhibitory concentration (IC50) in experiment [1] is 0.289 µM; in experiment [2] it was 1.18 µM.
The matching figures for `O=C(NO)c1ccc(Nc2ncc(F)c(-c3cnc4ccccn34)n2)cc1` [Example 51, 4-(5-Fluoro-4-imidazo[1,2-a]pyridin-3-yl-pyrimidin-2-ylamino)-N-hydroxy-benzamide]: 0.211 µM and 0.014 µM.
The like results for `Cc1nc2cc(C(=O)NCCN3CCOCC3)ccn2c1-c1ccnc(Nc2ccc(C(=O)Nc3ccccc3N)cc2)n1` [Example 25, 3-(2-(4-(2-aminophenylcarbamoyl)phenylamino)pyrimidin-4-yl)-2-methyl-N-(2-morpholinoethyl)imidazo[1,2-a]pyridine-7-carboxamide] were, in that order, 0.128 µM and 1.03 µM.
The like results for `Cc1nc2ccccn2c1-c1ccnc(Nc2cnc(C(=O)NO)cn2)n1` [Example 67, N-hydroxy-5-(4-(2-methylimidazo[1,2-a]pyridin-3-yl)pyrimidin-2-ylamino)pyrazine-2-carboxamide] were, in that order, 0.169 µM and 0.68 µM.
Consider `Cc1nc2cc(C(=O)O)ccn2c1-c1ccnc(Nc2ccc(C(=O)Nc3ccccc3N)cc2)n1` [Example 28, 3-{2-[4-(2-Amino-phenylcarbamoyl)-phenylamino]-pyrimidin-4-yl}-2-methyl-imidazo[1,2-a]pyridine-7-carboxylic acid], for which the half-maximal inhibitory concentration (IC50) in experiment [1] was determined as 0.621 µM; in experiment [2], 2.53 µM.
On to `Cc1nc2ccccn2c1-c1ccnc(Nc2ccc(C(=O)Nc3ccccc3N)cc2)n1` [Example 2, N-(2-Amino-phenyl)-4-(4-(2-methylimidazo[1,2-a]pyridin-3-yl)-pyrimidin-2-ylamino)-benzamide], for which the IC50 in experiment [1] is 0.146 µM; in experiment [2] it was 0.134 µM.
The like results for `Nc1ccccc1NC(=O)c1ccc(Nc2ncc(F)c(-c3cnc4ccccn34)n2)cc1` [Example 50, N-(2-Amino-phenyl)-4-(5-fluoro-4-imidazo[1,2-a]pyridin-3-yl-pyrimidin-2-ylamino)-benzamide] were, in that order, > 20 µM and 0.06 µM.
The like results for `Cc1nc2ccccn2c1-c1ccnc(Nc2ccc(C(=O)Nc3ccccc3N)cn2)n1` [Example 66, N-(2-aminophenyl)-6-(4-(2-methylimidazo[1,2-a]pyridin-3-yl)pyrimidin-2-ylamino)nicotinamide] were, in that order, 0.289 µM and 3.48 µM.
`Cc1nc2ccccn2c1-c1ccnc(Nc2ccc(C(=O)NO)s2)n1` [Example 52, N-hydroxy-5-(4-(2-methylimidazo[1,2-a]pyridin-3-yl)pyrimidin-2-ylamino)thiophene-2-carboxamide]: the IC50 in experiment [1] was found to be 0.31 µM; in experiment [2] it was 0.07 µM.
The like results for `Cc1nc2c(F)cccn2c1-c1ccnc(Nc2ccc(C(=O)NO)cc2)n1` [Example 44, 4-[4-(8-Fluoro-2-methyl-imidazo[1,2-a]pyridin-3-yl)-pyrimidin-2-ylamino]-N-hydroxy-benzamide] were, in that order, 0.251 µM and 0.09 µM.
The like results for `Cc1nc2ccc(C(F)(F)F)cn2c1-c1ccnc(Nc2ccc(C(=O)Nc3ccccc3N)cc2)n1` [Example 12, N-(2-Amino-phenyl)-4-[4-(2-methyl-6-trifluoromethyl-imidazo[1,2-a]pyridin-3-yl)-pyrimidin-2-ylamino]-benzamide] were, in that order, > 10 µM and 0.32 µM.
Consider `Cc1nc2ccc(Br)cn2c1-c1ccnc(Nc2ccc(C(=O)Nc3ccccc3N)cc2)n1` [Example 47, N-(2-Amino-phenyl)-4-[4-(6-bromo-2-methyl-imidazo[1,2-a]pyridin-3-yl)-pyrimidin-2-ylamino]-benzamide], for which the figures for the IC50 in experiment [1] and in experiment [2] were > 10 µM and 0.14 µM, respectively.
The like results for `Cc1nc2ccccn2c1-c1ccnc(Nc2cnc(C(=O)Nc3ccccc3N)cn2)n1` [Example 68, N-(2-aminophenyl)-5-(4-(2-methylimidazo[1,2-a]pyridin-3-yl)pyrimidin-2-ylamino)pyrazine-2-carboxamide] were, in that order, 0.0206 µM and > 40 µM.
As to `Cc1nc2ccc(C(=O)NCCN3CCOCC3)cn2c1-c1ccnc(Nc2ccc(C(=O)Nc3ccccc3N)cc2)n1` [Example 40, 3-(2-(4-(2-aminophenylcarbamoyl)phenylamino)pyrimidin-4-yl)-2-methyl-N-(2-morpholinoethyl)imidazo[1,2-a]pyridine-6-carboxamide], the values for the IC50 in experiment [1] and in experiment [2] were 0.347 µM and 7.1 µM, respectively.
